Columns and labels:
[1] = system: carrageenin oedema; experiment: anti-inflammatory activity, carrageenin oedema test; type: in vivo; details: rat, oral; dose which induces 50% decrease in the volume of the oedema; read-out: Anti-inflammatory activity ID50
Protocol: (§1) The anti-inflarnmatory activity of the compounds of the Examples was evaluated by the carrageenin oedema method and the analgesic activity was evaluated by the kaolin arthritis method.
Anti-inflammatory Activity:
The anti-inflammatory activity is evaluated in the rat by the carrageenin oedema test. The product is administered orally at a rate of 2.5 ml/100 g (n=6 animals per dose) 2 h 30 min after oral hyperhydration (2.5 m/100 g); one hour after administration of the product, the oedema is induced by the plantar subcutaneous injection of 2% aqueous carrageenin solution. The results are expressed as the ID50, the dose in mg/kg which induces 50% decrease in the volume of the oedema, calculated by linear regression using the maximum oedema volume obtained for each product tested.

[2] = target: T1, COX-2 (Ovis aries, UniProt P79208); experiment: inhibition of COX-2 enzymatic activity (PGE2 by EIA); type: biochemical, ewe; details: for IC50: purified enzyme from ewe placenta, arachidonic acid 4 μM, n=1 to 4 determinations; for Selectivity COX-1/COX-2 ratio: ratio of IC50 COX-1 / IC50 COX-2
T1 construct: purified enzyme from ewe placenta; from tissue; host or cells: ewe placenta (purified enzyme)
T1 sequence (P79208 17-603): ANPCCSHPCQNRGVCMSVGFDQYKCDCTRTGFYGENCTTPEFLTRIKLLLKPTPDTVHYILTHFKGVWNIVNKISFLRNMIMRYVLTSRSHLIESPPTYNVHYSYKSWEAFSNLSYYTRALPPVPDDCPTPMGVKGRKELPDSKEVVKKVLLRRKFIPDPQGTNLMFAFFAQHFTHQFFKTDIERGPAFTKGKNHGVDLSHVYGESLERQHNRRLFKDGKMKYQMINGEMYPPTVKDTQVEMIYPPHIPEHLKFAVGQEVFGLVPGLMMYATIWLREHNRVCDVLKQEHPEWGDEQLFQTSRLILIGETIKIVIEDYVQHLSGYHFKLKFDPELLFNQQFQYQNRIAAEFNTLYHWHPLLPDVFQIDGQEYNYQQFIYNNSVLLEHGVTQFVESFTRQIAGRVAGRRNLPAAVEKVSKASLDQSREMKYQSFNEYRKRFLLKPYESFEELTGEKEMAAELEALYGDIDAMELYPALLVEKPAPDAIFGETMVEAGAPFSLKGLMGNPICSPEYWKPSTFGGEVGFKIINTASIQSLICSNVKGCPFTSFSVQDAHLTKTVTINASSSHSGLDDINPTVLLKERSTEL
Protocol: (§2) Inhibition of the COX-1 and COX-2 Enzymatic Activities The test molecule is preincubated for 10 minutes at 25° C. with 2 U of COX-1 (purified enzyme from ram seminal vesicles) or 1 U of COX-2 (purified enzyme from ewe placenta). Arachidonic acid (6 μM for COX-1, 4 μM for COX-2) is added to the reaction medium and incubation is carried out for 5 minutes at 25° C. When incubation has ended, the enzymatic reaction is stopped by the addition of 1 N HCl and the PGE2 produced is determined by EIA. The results are expressed as IC50, the concentration in nM which corresponds to 50% inhibition of the maximal enzymatic activity on the COX-1 and COX-2 (n=1 to 4 determinations).

[3] = target: T2, COX-1 (Ovis aries, UniProt P05979); experiment: inhibition of COX-1 enzymatic activity (PGE2 by EIA); type: biochemical; details: purified enzyme from ram seminal vesicles; arachidonic acid 6 μM; n=1 to 4 determinations
T2 construct: purified enzyme from ram seminal vesicles; from tissue; host or cells: ram seminal vesicles (purified enzyme)
T2 sequence (P05979 25-600): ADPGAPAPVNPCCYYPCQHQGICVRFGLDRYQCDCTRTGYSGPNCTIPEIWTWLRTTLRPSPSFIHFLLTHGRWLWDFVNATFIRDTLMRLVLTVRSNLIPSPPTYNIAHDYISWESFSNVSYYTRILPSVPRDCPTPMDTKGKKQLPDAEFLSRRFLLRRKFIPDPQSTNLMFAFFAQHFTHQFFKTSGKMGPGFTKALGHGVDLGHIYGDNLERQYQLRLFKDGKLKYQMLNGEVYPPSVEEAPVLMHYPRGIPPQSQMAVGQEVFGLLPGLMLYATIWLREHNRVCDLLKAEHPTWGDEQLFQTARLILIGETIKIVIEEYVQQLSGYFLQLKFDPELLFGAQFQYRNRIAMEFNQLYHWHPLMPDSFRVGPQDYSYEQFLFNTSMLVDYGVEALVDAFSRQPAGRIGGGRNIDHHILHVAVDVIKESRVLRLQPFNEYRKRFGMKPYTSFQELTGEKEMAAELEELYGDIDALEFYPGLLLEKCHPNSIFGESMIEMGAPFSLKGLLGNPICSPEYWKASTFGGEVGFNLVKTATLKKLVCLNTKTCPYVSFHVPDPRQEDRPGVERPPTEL
Protocol: as §2

[4] = system: kaolin arthritis; experiment: analgesic activity, kaolin arthritis test; type: in vivo; details: rat, oral; dose which induces 50% decrease of the maximum quotation in the control batch; read-out: Analgesic activity DE50
Protocol: as §1
The analgesic activity is evaluated in the rat by the kaolin arthritis test. Thirty minutes after the intra-articular administration of 10% aqueous kaolin suspension, the product is administered orally at a rate of 1 ml/100 g (n=10 animals per dose). The results are expressed as DE50, the dose in mg/kg which induces 50% decrease of the maximum quotation in the control batch, calculated by linear regression.

SMILES	ED50 [1] [mg/kg]	IC50 [2] [nM]	Selectivity COX-1/COX-2 ratio [2]	IC50 [3] [nM]	ED50 [4] [mg/kg]
CS(=O)(=O)c1ccc(/C(=C2/CCOC2=O)c2ccc(Cl)cc2)cc1 [8 (E isomer), (E)-3-[1-(4-chlorophenyl)-1-(4-methanesulphonylphenyl)methylidene]dihydrofuran-2-one]	> 30				
CS(=O)(=O)c1ccc(/C(=C2\CCOC2=O)c2cccc(F)c2)cc1 [13 (Z isomer), (Z)-3-[1-(3-fluorophenyl)-1-(4-methanesulphonylphenyl)methylidene]dihydrofuran-2-one]	3.9	610	> 164	> 100000	14.1
CS(=O)(=O)c1ccc(/C(=C2\CCOC2=O)c2ccc(Cl)c(Cl)c2)cc1 [18 (Z isomer), (Z)-3-[1-(3,4-Dichlorophenyl)-1-(4-methanesulphonylphenyl)-methylidene]dihydrofuran-2-one]	> 30	132 ± 32	555	73200	6.1
CS(=O)(=O)c1ccc(/C(=C2/CCOC2=O)c2cccc(Cl)c2)cc1 [23 (E), (E)-3-[1-(3-chlorophenyl)-1-(4-methanesulphonylphenyl)methyl-idene]-dihydrofuran-2-one]		627	> 159	> 100000	
CS(=O)(=O)c1ccc(/C(=C2\CCOC2=O)c2cccc(Cl)c2)cc1 [23 (Z isomer), (Z)-3-[1-(3-Chlorophenyl)-1-(4-methanesulphonylphenyl)-methylidene]dihydrofuran-2-one]	9.3				7.2
CS(=O)(=O)c1ccc(/C(=C2\CCOC2=O)c2ccccc2)cc1 [28 (E isomer), (E)-3-[1-Phenyl-1-(4-methanesulphonylphenyl)methylidene]-dihydrofuran-2-one]	10.1	18400	> 0.5	> 10000	26.1
CC1(C)C/C(=C(/c2ccc(F)cc2)c2ccc(S(C)(=O)=O)cc2)C(=O)O1 [31 (E isomer), (E)-5,5-Dimethyl-3-[1-(4-fluorophenyl)-1-(4-methanesulphonylphenyl)methylidene]dihydrofuran-2-one]	3.1	780	> 128	> 100000	14.2
CCC1C/C(=C(/c2ccc(F)cc2)c2ccc(S(C)(=O)=O)cc2)C(=O)O1 (stereo not drawn) [34 (E isomer), (E)-5-Ethyl-3-[1-(4-fluorophenyl)-1-(4-methanesulphonylphenyl)methylidene]dihydrofuran-2-one]		694	> 144	> 100000	38.8
Cc1cccc(/C(=C2/CCOC2=O)c2ccc(S(C)(=O)=O)cc2)c1 [49 (Z isomer), (Z)-3-[1-(3-Methylphenyl)-1-(4-methanesulphonylphenyl)-methylidene]dihydrofuran-2-one]	> 30	418	> 239	> 100000	> 30
CS(=O)(=O)c1ccc(/C(=C2\CCOC2=O)c2ccc(F)c(F)c2)cc1 [54 (Z isomer), (Z)-3-[1-(3,4-Difluorophenyl)-1-(4-methanesulphonylphenyl)-methylidene]dihydrofuran-2-one]	> 30	710	> 141	> 100000	10.8
NS(=O)(=O)c1ccc(/C(=C2\CCOC2=O)c2ccc(F)cc2)cc1 [60 (E isomer), (E)-4-[(4-fluorophenyl)-(2-oxo-dihydrofuran-3-ylidene)methyl]benzenesulphonamide]	1.7	296 ± 107	274	81000	20.9
CS(=O)(=O)c1ccc(/C(=C2\CCOC2=O)c2cc(Cl)cc(Cl)c2)cc1 [70 (Z isomer), (Z)-3-[1-(3,5-dichlorophenyl)-1-(4-methanesulphonylphenyl)methylidene]-dihydro-furan-2-one]	5.5	225	> 444	> 100000	21.5
CS(=O)(=O)c1ccc(/C(=C2\CCOC2=O)c2ccc(F)cc2F)cc1 [75 (Z isomer), (Z)-3-[1-(2,4-difluorophenyl)-1-(4-methanesulphonylphenyl)methylidene]-dihydro-furan-2-one]	4.6				
CS(=O)(=O)c1ccc(/C(=C2\CCOC2=O)c2cc(F)cc(F)c2)cc1 [80 (Z isomer), (Z)-3-[1-(3,5-difluorophenyl)-1-(4-methanesulphonylphenyl)methylidene]-dihydro-furan-2-one]	4.8	518	> 193	> 100000	5.8
Cc1ccc(/C(=C2/CCOC2=O)c2ccc(S(C)(=O)=O)cc2)cc1 [85 (E isomer), (E)-3-[1-(4-methylphenyl)-1-(4-methanesulphonylphenyl)methylidene]-dihydro-furan-2-one]	> 30	350	> 286	> 100000	> 30
CS(=O)(=O)c1ccc(/C(=C2\CCOC2=O)c2cccc(Br)c2)cc1 [90 (Z isomer), (Z)-3-[1-(3-bromophenyl)-1-(4-methanesulphonylphenyl)methylidene]-dihydro-furan-2-one]	17.2	458	> 218	> 100000	
CS(=O)(=O)c1ccc(/C(=C2\CCOC2=O)c2ccc(F)c(Cl)c2)cc1 [95 (Z isomer), (Z)-3-[1-(3-chloro-4-fluorophenyl)-1-(4-methanesulphonylphenyl)methylidene]-dihydrofuran-2-one]	1.6	205 ± 35	1510	309000 ± 27500	5.8
CS(=O)(=O)c1ccc(/C(=C2\CCOC2=O)c2ccc(Br)cc2)cc1 [100 (Z isomer), (Z)-3-[1-(4-bromophenyl)-1-(4-methanesulphonylphenyl)methylidene]-dihydro-furan-2-one]	3.6	166	373	62000	
Cc1ccc(/C(=C2/CCOC2=O)c2ccc(S(N)(=O)=O)cc2)cc1F [130 (Z isomer), (Z)-4-[(3-fluoro-4-methylphenyl)-(2-oxo-dihydrofuran-3-ylidene)methyl]benzenesulphonamide]	2	131 ± 19	349	45700	2.4

Reference: patent US6180651A, “Diarylmethylidenefuran derivatives, processes for their preparation and their uses in therapeutics” (Bristol-Myers Squibb, priority 1996, dated 2001)
